In patent US8008291B2 (Mimetica Pty Ltd, priority 2008, dated 2011):
pIC50: −log10 of the molar value.

Target: T1, human MC5R (hMC5R) (Homo sapiens, UniProt P33032)
T1 construct: purchased Perkin Elmer RBXMC5M400UA
Test: Human MC5R radioligand binding assay (membranes, [125I] NDP-MSH displacement)
Conditions: hMC5R binding; tested as trifluoroacetate or hydrochloride salts, or free bases; read-out: MC5R radioligand IC50
Summary of the method: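 Displacement of [125I]NDP-MSH (radioiodinated in house, HPLC-purified) from hMC5R membranes by test compound measured after 1 hr incubation at 37° C.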

T1 sequence (P33032 whole entry): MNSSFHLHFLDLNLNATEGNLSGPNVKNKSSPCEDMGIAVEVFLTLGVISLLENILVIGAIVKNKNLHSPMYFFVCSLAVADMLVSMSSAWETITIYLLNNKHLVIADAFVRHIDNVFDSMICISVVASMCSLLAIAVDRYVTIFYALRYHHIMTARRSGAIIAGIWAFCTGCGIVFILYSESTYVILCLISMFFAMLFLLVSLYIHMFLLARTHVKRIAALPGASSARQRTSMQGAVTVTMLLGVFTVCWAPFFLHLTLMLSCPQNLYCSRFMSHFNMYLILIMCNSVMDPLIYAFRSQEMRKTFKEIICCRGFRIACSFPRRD

Structure (SMILES)	pIC50
CC[C@H](CN1CC[C@@H](CNC(=O)/C=C/c2ccc(OC(F)(F)F)c(F)c2)N[C@@H](CCN2CCCCC2)C1=O)c1ccccc1 [Compound 539, (E)-3-(3-fluoro-4-(trifluoromethoxy)phenyl)-N-(((3S,5S)-2-oxo-1-((S)-2-phenylbutyl)-3-(2-(piperidin-1-yl)ethyl)-1,4-diazepan-5-yl)methyl)acrylamide]	> 8.00
CCC(CN1CC[C@@H](CNC(=O)/C=C/c2ccc(Cl)cc2)N[C@@H](CCN)C1=O)c1ccccc1 (stereo partly drawn) [Compound 353, (E)-N-(((3S,5S)-3-(2-aminoethyl)-2-oxo-1-(2-phenylbutyl)-1,4-diazepan-5-yl)methyl)-3-(4-chlorophenyl)acrylamide]	> 7.00
CC(=O)N[C@H](Cc1ccc2ccccc2c1)[C@@H]1CCN(CC(c2ccccc2)c2ccccc2)C(=O)[C@H](CCCNC(=N)N)N1 [Compound 85, N—((R)-1-((3S,5S)-1-(2,2-diphenylethyl)-3-(3-guanidinopropyl)-2-oxo-1,4-diazepan-5-yl)-2-(naphthalen-2-yl)ethyl)acetamide]	> 5.00
O=C(NC[C@@H]1CCN(CC(c2ccccc2)c2ccccc2)C(=O)[C@H](CCCNC2CCC2)N1)c1ccc2ccccc2c1 [Compound 247, N-(((3S,5S)-3-(3-(cyclobutylamino)propyl)-1-(2,2-diphenylethyl)-2-oxo-1,4-diazepan-5-yl)methyl)-2-naphthamide]	> 7.00
CC[C@H](CN1CC[C@@H](CNC(=O)c2ccc3cc(Cl)ccc3c2)N[C@@H](CCCN2CCCCC2)C1=O)c1ccccc1 [Compound 417, 6-chloro-N-(((3S,5S)-2-oxo-1-((S)-2-phenylbutyl)-3-(3-(piperidin-1-yl)propyl)-1,4-diazepan-5-yl)methyl)-2-naphthamide]	> 7.00

Continued, values first:

pIC50	Structure (SMILES)
> 7.00	CCC(CC)CN1CC[C@@H](CNC(=O)c2ccc3ccccc3c2)N[C@@H](CCN2CCCCC2)C1=O [Compound 333, N-(((3S,5S)-1-(2-ethylbutyl)-2-oxo-3-(2-(piperidin-1-yl)ethyl)-1,4-diazepan-5-yl)methyl)-2-naphthamide]
> 6.00	CCC(CC)CN1CC[C@@H](CNC(=O)c2ccc3ccccc3c2)N[C@@H](CCCNC(=N)N)C1=O [Compound 297, N-(((3S,5S)-1-(2-ethylbutyl)-3-(3-guanidinopropyl)-2-oxo-1,4-diazepan-5-yl)methyl)-2-naphthamide]
> 5.00	C[C@@H](CN1CC[C@@H](CNC(=O)c2ccc3ccccc3c2)N[C@@H](CCCN)C1=O)c1ccccc1 [Compound 357, N-(((3S,5S)-3-(3-aminopropyl)-2-oxo-1-((R)-2-phenylpropyl)-1,4-diazepan-5-yl)methyl)-2-naphthamide]
> 6.00	CC(C)NCC[C@@H]1N[C@H](CNC(=O)c2ccc3ccccc3c2)CCN(CC(c2ccccc2)c2ccccc2)C1=O [Compound 382, N-(((3S,5S)-1-(2,2-diphenylethyl)-3-(2-(isopropylamino)ethyl)-2-oxo-1,4-diazepan-5-yl)methyl)-2-naphthamide]
> 5.00	NCCC[C@@H]1N[C@H](CNC(=O)c2ccc3ccccc3c2)CCN(Cc2ccccc2Cl)C1=O [Compound 317, N-(((3S,5S)-3-(3-aminopropyl)-1-(2-chlorobenzyl)-2-oxo-1,4-diazepan-5-yl)methyl)-2-naphthamide]
> 6.00	N=C(N)NCCC[C@@H]1N[C@H](CNC(=O)c2ccc3ccccc3c2)CCN(Cc2cc(F)cc(F)c2)C1=O [Compound 311, N-(((3S,5S)-1-(3,5-difluorobenzyl)-3-(3-guanidinopropyl)-2-oxo-1,4-diazepan-5-yl)methyl)-2-naphthamide]
> 5.00	N=C(N)NCCC[C@@H]1N[C@H](CNC(=O)c2ccc3ccccc3c2)CCN(c2ccc3ccccc3c2)C1=O [Compound 226, N-(((3S,5S)-3-(3-guanidinopropyl)-1-(naphthalen-2-yl)-2-oxo-1,4-diazepan-5-yl)methyl)-2-naphthamide]
